The values below come from article PMC4574779, “Selective Production of 9R-Hydroxy-10E,12Z,15Z-Octadecatrienoic Acid from α-Linolenic Acid in Perilla Seed Oil Hydrolyzate by a Lipoxygenase from Nostoc Sp. SAG 25.82” (PLoS ONE, 2015).

SMILES strings stand for the structures.

The test addresses T1, 9R-LOX (9R-lipoxygenase) from Nostoc sp. SAG 25.82 (Nostoc sp. PCC 7120 = FACHB-418, UniProt Q8YK97).
T1 construct: gene all8020; 9R-lox/pET-15b, His-tagged, E. coli ER2566, His-Trap purified
T1 sequence (Q8YK97 318-773 limits assumed): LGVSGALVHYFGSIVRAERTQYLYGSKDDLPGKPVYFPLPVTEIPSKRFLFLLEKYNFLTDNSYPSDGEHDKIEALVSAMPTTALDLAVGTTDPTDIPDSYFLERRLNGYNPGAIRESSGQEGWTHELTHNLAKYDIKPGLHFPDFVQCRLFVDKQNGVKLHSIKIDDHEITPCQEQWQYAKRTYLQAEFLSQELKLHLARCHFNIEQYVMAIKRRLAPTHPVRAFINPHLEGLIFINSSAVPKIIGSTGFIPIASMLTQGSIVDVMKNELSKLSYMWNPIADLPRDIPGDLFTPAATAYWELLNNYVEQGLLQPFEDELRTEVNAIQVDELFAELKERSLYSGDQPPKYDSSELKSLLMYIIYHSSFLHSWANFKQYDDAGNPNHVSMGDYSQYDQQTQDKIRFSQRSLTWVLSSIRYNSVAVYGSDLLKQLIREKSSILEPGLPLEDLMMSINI
The test can be described thus: oxygen uptake (Clark-type electrode), nonlinear Michaelis-Menten fit. The note with it: O2 co-substrate; 50 mM Tris-HCl pH 8.5; 25°C in methods (results text: 15°C, 5% acetone, 0.2% Tween 80). It counts as biochemical. An excerpt: oxygen uptake (Clark-type electrode), nonlinear Michaelis-Menten fit on 9R-LOX (9R-lipoxygenase) from Nostoc sp. SAG 25.82
One may read the Km as the substrate concentration at which the rate is half of its maximum. As for `CC/C=C\C/C=C\C/C=C\CCCCCCCC(=O)O` [ALA, α-Linolenic acid], the Km was found to be 54 ± 1.3 µM.
As to `CCCCC/C=C\C/C=C\C/C=C\CCCCC(=O)O` [GLA, γ-Linolenic acid], the Km was determined as 54 ± 0.8 µM.
Take `CCCCC/C=C\C/C=C\CCCCCCCC(=O)O` [LA, Linoleic acid]: the Michaelis-Menten constant (Km) came out at 404 ± 30 µM.
